According to patent publication US20220273617A1, “ANTI-CANCER, ANTI-INFLAMMATORY AND IMMUNOMODULATORY ACTIVITY OF R-CARVEDILOL AND METHODS OF USE” (priority 2021, published 2022):
Entries after “also recorded” stand apart in the source; their conditions may differ. Blank lines part the entries; values can stand above or below the compound they belong to.

Legend:
[1] = test system: UV-induced immunosuppression; assay: UV-induced suppression of contact hypersensitivity (CHS) to DNFB; type: in vivo, SKH-1 hairless mice; conditions: single dose i.p. 2 h before UV 224 mJ/cm^2; carvedilol 1 and 10 mg/kg, R-carvedilol 10 mg/kg
Protocol: Mice were treated with NS398, CAR or R-CAR (L: 1 mg/kg; H: 10 mg/kg) i.p. 2 hr before UV exposure (224 mJ/cm^2). 24 h after, mice were sensitized with DNFB on back. After 7 days, the right ears were challenged with DNFB. 24 h after, 5 mm punch biopsies were obtained from both ears and weighed. The data are the mean±SE difference in ear biopsy weights (right-left) from n=5 mice (male). *: P<0.05; **: P<0.01.
The data listed are the mean±SE difference in ear biopsy weights (Right-Left) from n=5 mice (male). *: P<0.05; **:P<0.01.
Immunosuppression induced by UV radiation is commonly investigated using the contact hypersensitivity (CHS) response to contact allergens such as the hapten dinitrofluorobenzene (DNFB). […] Thus, carvedilol's skin cancer preventive activity may be partly attributed to its inhibitory effects on UV-induced immunosuppression.
The mice were pretreated with single dose of R-carvedilol (10 mg/kg, i.p.) two hours before UV radiation, and were subject to UV exposure. […] Thus, R-carvedilol, although not a β-blocker, similarly reverses UV-induced immunosuppression.
CHS assay was used to evaluate the effects of a topical delivery system of carvedilol developed by us, named “T-CAR”, on UV-induced immunosuppression. […]

JB6 [2] = conditions: among 16 β-blockers examined (Cleveland K H, 2019); cited from earlier work
[3] = test system: B(a)P-induced lung toxicity; assay: Short term single dose B(a)P-induced lung toxicity in mice; type: in vivo, CD1/IGS mice; conditions: for plasma LDH levels / plasma MDA levels (LPO): B(a)P 125 mg/kg on day 7; for protection against B(a)P-induced histological changes and COX-2 expression: oral, compared with racemic carvedilol
From the text: Chronic exposure to carcinogens that are present in tobacco smoking or air pollution is a well-known cause of lung cancer. One of the most important strategies to manage lung cancer is chemoprevention, which uses synthetic or natural products to block or reverse lung cancer initiation, promotion, and progression. Benzo(a)pyrene (B(a)P), a polycyclic aromatic hydrocarbon, is a pro-carcinogen ubiquitously present as pollutants in the environment. It is mostly produced during cigarette smoking and is present in automobile exhausts, and causes lung toxicity and lung cancer after metabolic activation. A single dose B(a)P-induced lung toxicity study in mice was used to evaluate the protective effects of carvedilol. In male CD1/IGS mice, carvedilol was orally administered (20 mg/kg body weight) once a day for 7 days. The mice were then treated with a single dose B(a)P via oral gavage (125 mg/kg body weight) on day 7, 30 min after the drug treatment. Mice were sacrificed 24 hours after B(a)P treatment. As expected, B(a)P increased the plasma levels of lactate dehydrogenase (LDH) and Malondialdehyde (MDA) for lipid peroxides (LPO).

4T1 = assay: Triple negative breast tumor 4T1 in BalB/C mice; type: in vivo; conditions: for tumor growth: 20 mg/kg/day in drinking water from two weeks before inoculation, monotherapy; for efficacy in combination with anti-PD-1 therapy: same 4T1 model, combined with anti-PD-1
Protocol: To investigate the effect of carvedilol and R-carvedilol on breast cancer growth, the BalB/C mice were treated with the drugs (20 mg/kg/day) in drinking water for two weeks before the mice were inoculated with murine triple negative breast tumor 4T1 in the fourth left mammary fat pad. […] The same experimental model was treated with carvedilol or R-carvedilol, in combination with the anti-PD-1 therapy.

B(a)P-induced lung tumor = assay: Long term B(a)P-induced lung carcinogenesis in A/J mice; type: in vivo; conditions: for tumor incidence: B(a)P only 100%
Protocol: To examine the chemopreventive efficacy of carvedilol, we used an established lung carcinogenesis model in A/J mice induced by B(a)P. Two drug doses were examined: 20 mg/kg (H) and 3.2 mg/kg (L). The mice were randomly divided by body weight into seven groups at the beginning of the experiments. To induce lung tumor, mice were given a single intraperitoneal (i.p.) injection of B(a)P at 100 mg/kg body weight in 0.2 ml tricaprylin. The following are treatment groups: (1) vehicle control, n=8; (2) B(a)P only, n=9; (3) B(a)P+gefitinib 400 mg/kg, weekly oral gavage, positive control, n=10; (4) B(a)P+carvedilol 20 mg/kg drinking water, n=9; (5) B(a)P+carvedilol 3.2 mg/kg drinking water, n=8; (6) B(a)P+R-carvedilol 20 mg/kg drinking water, n=9; (7) B(a)P+R-carvedilol 3.2 mg/kg drinking water, n=10. The mice began the drug treatments 3 weeks before B(a)P treatment and terminated at 23 weeks after B(a)P treatment. […] Tumor multiplicity was determined by counting surface tumors in fixed lung under a dissecting microscope. […] The tumor incidence for gefitinib group was 70%. The tumor incidence was 89% and 50% for high and low dose carvedilol, respectively. The tumor incidence was 67% and 70% for high and low dose R-carvedilol, respectively.

[4] = Ex vivo permeation across rat skin, Franz diffusion cells; type: in vitro ADME; conditions: for permeation: rat, 200 μg/mL
Protocol: Instead of nanoparticle-based topical delivery, the present inventors have explored other methods of skin delivery of drugs. They investigated the effects of natural penetration enhancers on the ex vivo permeation of carvedilol across rat skin. […] The drug formulations containing carvedilol or R-carvedilol (200 μg/mL) (1 mL) was loaded on Franz diffusion cells using excised rat dorsal skin (with hair removed). […] D-limonene is isolated from orange peel, and is a cheap and safe option to delivery carvedilol (same for R-carvedilol) for skin cancer prevention. D-limonene is present in many skin commercial products such as perfumes and essential oils. Therefore, this invention provides another novel approach of making skin targeting formulation for both carvedilol and R-carvedilol. This approach of making skin formulation is not only safe but also easier to scale up to industry level for making large amount.

B16-F10 tumor = B16-F10 tumor bearing C57BL/6 mice; type: in vivo; conditions: topical daily
Protocol: Comparison of the efficacy of free drug and T-CAR (day 14). One day after tumor inoculation (two tumors per mouse, mice received free drug or T-CAR daily.
One day after tumor inoculation (one per mouse), mice received free drug or T-CAR daily, 200 μg RMP1-14 twice a week, or combination.
A: group 1, control; B: group 4, T-CAR+RMP1-14. Tumor collected at day 20 after inoculation.
Tumor collected at day 20 after inoculation.
The carvedilol loaded transfersome, T-CAR, was evaluated in vitro and in vivo on melanoma growth. […] To examine the in vivo activity of T-CAR, in C57BL/6 mice bearing the B16-F10 tumor, the T-CAR gel as a topical monotherapy was examined. The efficacy of T-CAR was compared with free drug dissolved in acetone in male mice bearing B16-F10 (two tumors inoculated in each mouse). […] Second study examined efficacy of topical T-CAR combined with anti-PD-1 (RMP1-14, 200 μg per mouse, i.p. twice per week) (one tumor was inoculated in each mouse).

[5] = orally administered; cited from earlier work
[6] = Systolic blood pressure of mice, noninvasive tail-cuff system; type: in vivo; conditions: 32 mg/kg/day
Protocol: SKH-1 mice were given racemic carvedilol or R-carvedilol in drinking water for two weeks (32 mg/kg/day). Blood pressure was examined in mice utilizing a Kent CODATM noninvasive tail-cuff system.

[7] = test system: UV induced skin carcinogenesis; assay: Chronic UV induced skin carcinogenesis model; type: in vivo, mice; conditions: for delay in tumor formation compared to UV only controls: topical, chronic UV
[8] = oral 1.6 mg/kg, mice; cited from earlier work
JB6 [9] = assay: EGF-induced JB6 transformation; type: cell-based, mouse
[10] = In vitro penetration and skin retention, Franz diffusion cells and porcine ear skin; type: in vitro ADME; conditions: Franz diffusion cells, porcine ear skin; free drug in water or PEG 400
From the text: Thus, topical route has been investigated as a major approach in the application of R-carvedilol for clinical skin cancer prevention. In order to prepare for clinical studies, we prepared three types of transfersome-based formulation for R-carvedilol using different amount of phospholipid (soy phosphatidylcholine, SPC) or edge activator (tween-80). The particle sizes, zeta potential, encapsulation efficiency and stability for these transfersomes were very similar to those of T-CAR. […] This confirms that nano-transfersomes provide a promising delivery system for both carvedilol and R-carvedilol. Thus, this selected transfersomal formulation for R-carvedilol, named “T-RCAR”, will be further characterized in preclinical model systems and examined in clinical trials in the future.

[11] = test system: UV induced skin damage and inflammation; assay: Acute UV induced skin damage and inflammation model; type: in vivo, mouse; conditions: topical 0.1, 1 or 10 μM in acetone immediately after single UV 300 mJ/cm^2
Protocol: In an acute UV induced skin damage and inflammation model induced with a single dose of UV (300 mJ/cm^2), topical treatment with R-carvedilol (0.1, 1 or 10 μM in acetone as a vehicle), applied immediately after the UV, attenuated mouse skin edema and reduced epidermal thickening, Ki-67 staining, COX-2 protein, IL-6 and IL-10 mRNA levels.

[12] = Plasma concentration in mice given drug in drinking water; type: in vivo; conditions: 178 μg/mL in drinking water (32 mg/kg/day), 2 weeks, 95% CI in brackets
[13] = R-carvedilol alone, healthy human volunteers; cited from earlier work
[14] = oral 20 mg/kg once a day for 7 days
[15] = high dose 20 mg/kg drinking water
[16] = low dose 3.2 mg/kg drinking water

permeation [4]: 1.6 ± 0.25 µg | permeation ([4]; pH 7.4): 0.430 /−0.07 μg
SMILES: COc1ccccc1OCCNCC(O)COc1cccc2[nH]c3ccccc3c12 (racemic) [carvedilol]
UV-induced CHS suppression [1]: reversed UV-induced suppression of CHS | potency in preventing EGF-induced neoplastic transformation of mouse epidermal cells (JB6 [2]): highest potency | B(a)P-induced expression of COX-2 in lung (IHC) [3, 14]: attenuated | plasma LDH levels [3, 14]: significantly attenuated | plasma MDA levels (LPO) [3, 14]: significantly attenuated | B(a)P-induced lung morphological changes (histology) ([3]; oral 20 mg/kg once a day for 7 days, H&E): reduction in these morphological changes | tumor growth (4T1): significantly reduced | efficacy in combination with anti-PD-1 therapy (4T1): enhanced the efficacy of anti-PD-1 monotherapy | tumor incidence (B(a)P-induced lung tumor; [15]): 89% | tumor incidence (B(a)P-induced lung tumor; [16]): 50% | tumor multiplicity (B(a)P-induced lung tumor; lower dose 3.2 mg/kg drinking water): significantly attenuated | tumor inhibition (total tumor volume) (B16-F10 tumor; 10 μM, day 14, two tumors per mouse, male mice): trend of tumor inhibition | tumor inhibition (total tumor volume) (B16-F10 tumor; free drug in acetone 100 μM (CAR H), day 14): less effective | bioavailability [5]: 24% | mean systolic blood pressure ([6]; mouse, in vivo): statistically reduced mean systolic blood pressure | delay in tumor formation compared to UV only controls [7]: 3 week

SMILES: COc1ccccc1OCCNC[C@@H](O)COc1cccc2[nH]c3ccccc3c12 [R-carvedilol]
heart rate or blood pressure [8]: did not alter heart rate or blood pressure | UV-induced CHS suppression [1]: reversed UV-induced suppression of CHS; also recorded: significantly reversed UV-induced CHS suppression | inhibitory effects on EGF-induced JB6 transformation (JB6 [9]): nearly identical inhibitory effects | plasma LDH levels [3, 14]: significantly attenuated | plasma MDA levels (LPO) [3, 14]: significantly attenuated | protection against B(a)P-induced histological changes and COX-2 expression [3]: same degree of protection as the racemic carvedilol | tumor growth (4T1): significantly reduced | efficacy in combination with anti-PD-1 therapy (4T1): enhanced the efficacy of anti-PD-1 monotherapy | tumor inhibition (B(a)P-induced lung tumor; 20 and 3.2 mg/kg drinking water): same trend of tumor inhibition as carvedilol | tumor incidence (B(a)P-induced lung tumor; [15]): 67% | tumor incidence (B(a)P-induced lung tumor; [16]): 70% | skin permeation [10]: very little | skin retention [10]: very little | COX-2 protein [11]: reduced | IL-6 mRNA levels [11]: reduced | IL-10 mRNA levels [11]: reduced | Ki-67 staining [11]: reduced | epidermal thickening [11]: reduced | mouse skin edema [11]: attenuated | skin permeation ([4]; control formulation: PBS pH 7.4 with 40% v/v PEG 400): minimal | mean plasma concentration [12]: 25.13 ng/mL | mean systolic blood pressure ([6]; drinking water, 2 weeks, male SKH-1 mice): did not alter blood pressure | skin tumor development ([7]; topical 10 μM in acetone 30 min before UV): strongly inhibited skin tumor development | delay in tumor formation compared to UV only controls [7]: 5 week | adverse effects [13]: without major adverse effects

SMILES: COc1ccccc1OCCNC[C@H](O)COc1cccc2[nH]c3ccccc3c12 [S-carvedilol]
inhibitory effects on EGF-induced JB6 transformation (JB6 [9]): nearly identical inhibitory effects | plasma LDH levels [3, 14]: significantly attenuated | plasma MDA levels (LPO) [3, 14]: significantly attenuated | protection against B(a)P-induced histological changes and COX-2 expression [3]: same degree of protection as the racemic carvedilol

SMILES: COc1cc2ncnc(Nc3ccc(F)c(Cl)c3)c2cc1OCCCN1CCOCC1 [gefitinib]
tumor incidence (B(a)P-induced lung tumor; 400 mg/kg weekly oral gavage, positive control): 70%
